Like-named read-outs stand apart in the source and are kept apart here.

Assay [1] deals with SW480 colon carcinoma cells. The assay is described as follows: Cell viability assay (CellTiter-Glo) in SW480 cells.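 Further: SW480 cells stably carrying an Sp5-luciferase TCF/LEF reporter, luminescent ATP signal as viability measure, DMSO-treated cells as control.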 Type of assay: cell-based, human.
Assay [2] deals with Wnt activity (Sp5-Luc reporter in SW480 colon carcinoma cells). Briefly: Wnt activity screening assay (Sp5-Luc reporter gene assay). It counts as cell-based, human. A digest of the protocol: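 Compounds at 10 points (1:3 steps, top 10 μM, 0.1% DMSO final) were incubated 36 to 48 h at 37° C with stable Sp5-Luc SW480 reporter cells in 1% FBS medium. Luciferase luminescence was then read and expressed relative to DMSO-only cells. Four-parameter variable-slope fitting yielded EC50 values.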

In the next assay the test system is IL-6. Briefly: IL-6 inhibition in LPS-stimulated human peripheral blood mononuclear cells (HTRF). It counts as cell-based. The conditions noted are these: Homo sapiens, PBMC; for inhibition at 10 µM: read-out: percent value in parentheses below EC50 >10; for EC50: IL-6, LPS-stimulated huPBMCs, HTRF. A digest of the protocol:
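EC50 from a 4-parameter fit of DMSO-normalized HTRF (665/620 nm) IL-6 signal, duplicates. Compound was added to fresh human PBMCs in 1% FBS RPMI for 2 h (top 10 μM, 3-fold, 0.25% DMSO) before 22 h stimulation with LPS at 50 ng/mL, 37 °C.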

The target in the next assay is GSK3β kinase (Homo sapiens (Human), UniProt P49841). The assay is described as follows: GSK3β kinase assay (Ser/Thr 09 peptide Z-lyte, FRET).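 Further: Coumarin/fluorescein emission ratio converted to percent phosphorylation against unphosphorylated (0%) and phosphorylated (100%) controls, 1 h compound incubation at room temperature, 11-point threefold dilutions from 10 µM, run in duplicate.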 The note with it: method text calls the value IC50. Type of assay: biochemical.
Assay [3] has as its system Tau phosphorylation at Ser396 (pSer396), SH-SY5Y cells. Briefly: Tau phosphorylation at Ser396 (pSer396) in SH-SY5Y cells, ELISA/western blot.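 Further: cell lysates probed for reduced Tau pSer396 via ELISA (colorimetric) or western blot (chemiluminescence), both with one shared pSer396 antibody, EC50 for lowering phosphorylation.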 It counts as cell-based, human. The conditions noted are these: Homo sapiens.
For the next assay, the target named is DYRK1A kinase (Homo sapiens (Human), UniProt Q13627). The assay is described as follows: DYRK1A kinase assay (Ser/Thr 18 peptide Z-lyte, FRET).
Assay [4] concerns LL29 cells (primary human fibroblasts derived from IPF patients), α-smooth muscle actin. The assay is described as follows: Inhibition of fibrotic process: αSMA in TGF-β1-treated primary human fibroblasts from IPF patients (LL29 cells). It counts as cell-based. The conditions noted are these: Homo sapiens, Fibroblast; for EC50: 96 h, % αSMA-positive LL29 cells, TGF-β1 20 ng/mL, 4 days; for inhibition at 10 µM: read-out: percent inhibition at 10 μM. A digest of the protocol:
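Read-out is the percentage of αSMA-positive cells by high-content imaging, excluding SYTOX green-positive dead/apoptotic cells, normalized to TGF-β1-only wells on the same plate. LL29 cells were exposed for 4 days at 37 °C to 20 ng/mL TGF-β1 plus 11-point, 2-fold compound dilutions in 0.1% DMSO.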

Setting [5] is: Homo sapiens, 96 h; cell viability, SW480 cells, four days, CellTiter-Glo.
The mark [6] stands for this setting: Homo sapiens; Sp5-Luc reporter, SW480 cells, 36 to 48 hours.
The mark [7] stands for this setting: SH-SY5Y cells, overnight (16-18 h), read-out: pSer396 Tau EC50.
Where [8] appears, read: DYRK1A kinase, method text calls the value IC50.
Setting [9] is: Homo sapiens, SW480, read-out: percent inhibition at 10 μM.
The mark [10] stands for this setting: Homo sapiens, SW480; read-out: percent inhibition at 10 μM.

Sequence of GSK3β kinase (P49841 whole entry): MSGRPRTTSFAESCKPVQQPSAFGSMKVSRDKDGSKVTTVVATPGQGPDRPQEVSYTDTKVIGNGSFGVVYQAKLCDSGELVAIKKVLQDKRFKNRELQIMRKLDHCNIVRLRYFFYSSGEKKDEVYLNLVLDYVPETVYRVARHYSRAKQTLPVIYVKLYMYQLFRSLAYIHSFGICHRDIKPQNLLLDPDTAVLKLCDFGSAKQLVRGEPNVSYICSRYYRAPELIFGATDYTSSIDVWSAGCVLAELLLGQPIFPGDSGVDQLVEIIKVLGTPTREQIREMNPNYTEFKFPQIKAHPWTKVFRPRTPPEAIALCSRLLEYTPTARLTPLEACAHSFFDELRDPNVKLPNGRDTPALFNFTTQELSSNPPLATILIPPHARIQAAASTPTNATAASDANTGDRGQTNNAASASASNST

Consider `Cc1nnc(-c2ccc3cnc(NC(=O)N4CC[C@H](N(C)C)[C@@H](F)C4)cc3c2)s1` [Compound 34, (3S,4S)-4-(dimethylamino)-3-fluoro-N-(6-(5-methyl-1,3,4-thiadiazol-2-yl)isoquinolin-3-yl)piperidine-1-carboxamide], for which the EC50 in assay [1] (setting [5]) was 3760 nM; in assay [2] (setting [6]) it was 3360 nM; in the assay on IL-6, more than 10000 nM; at GSK3β kinase it was 46 nM; in assay [3] (setting [7]), 0.456 µM; on DYRK1A kinase (setting [8]), 15 nM. Besides, in assay [4], the EC50 is more than 10000 nM. Besides, the inhibition at 10 µM turned out to be 7% with IL-6 and 48.5% in assay [4].

Take `CN(C)C1CCN(C(=O)Nc2cc3cc(-c4cnn(C)c4)ccc3cn2)CC1` [Compound 63, 4-(Dimethylamino)-N-(6-(1-methyl-1H-pyrazol-4-yl)isoquinolin-3-yl) piperidine-1-carboxamide]: the EC50 was 2570 nM in assay [1] (setting [5]); 657 nM in assay [2] (setting [6]); 4800 nM in the assay with IL-6; 473 nM at GSK3β kinase; 3.1 µM in assay [3] (setting [7]); 17 nM at DYRK1A kinase (setting [8]). The same compound showed an EC50 in assay [4] of 1280 nM.

Consider `CN[C@H]1CCN(C(=O)Nc2cc3cc(-c4nnc(C)s4)ccc3cn2)C[C@@H]1F` [Compound 179, (3S,4S)-3-Fluoro-N-(6-(5-methyl-1,3,4-thiadiazol-2-yl)isoquinolin-3-yl)-4-(methylamino)piperidine-1-carboxamide], for which the EC50 in assay [1] (setting [5]) is 5060 nM; in assay [2] (setting [6]), 2780 nM; in the assay on IL-6 it was more than 10000 nM; on GSK3β kinase, 26 nM; in assay [3] (setting [7]), 1.3 µM; at DYRK1A kinase (setting [8]) it was 18 nM. This compound yielded a concentration for a half-maximal effect (EC50) in assay [4] of more than 10000 nM. Besides, the inhibition at 10 µM (in the assay on IL-6; in assay [4]) was 10.1% in each case.

Turning to `[2H]c1c(NC(=O)C2CCNCC2)ncc2ccc(-c3cnn(C)c3)cc12` [Compound 5, N-(6-(1-Methyl-1H-pyrazol-4-yl)isoquinolin-3-yl-4-d)piperidine-4-carboxamide], the EC50 in assay [1] (setting [5]) is 738 nM; in assay [2] (setting [6]) it was 917 nM; in the assay on IL-6, 1050 nM; on GSK3β kinase, 115 nM; in assay [3] (setting [7]) it was 0.511 µM; on DYRK1A kinase it was 3 nM. This compound also gave an EC50 in assay [4] of 113 nM.

Take `Cc1ncc(-c2ccc3cnc(NC(=O)[C@H]4CC[C@H](NCCC(F)(F)F)CC4)cc3c2)o1` [Compound 148, trans-N-(6-(2-Methyloxazol-5-yl)isoquinolin-3-yl)-4-((3,3,3-trifluoropropyl)amino)cyclohexane-1-carboxamide]: the EC50 in assay [1] (setting [5]) was 1200 nM; in assay [2] (setting [6]), 3440 nM; in the assay on IL-6, 414 nM; at GSK3β kinase it was 257 nM; in assay [3] (setting [7]), 0.599 µM; at DYRK1A kinase (setting [8]), 14 nM. Also, the EC50 in assay [4] was determined as 286 nM.

Turning to `Cc1nnc(-c2ccc3cnc(NC(=O)N4CCC(NCCF)CC4)cc3c2)s1` [Compound 156, 4-((2-Fluoroethyl)amino)-N-(6-(5-methyl-1,3,4-thiadiazol-2-yl)isoquinolin-3-yl)piperidine-1-carboxamide], the EC50 in assay [1] (setting [5]) is 2550 nM; in assay [2] (setting [6]), 2840 nM; with IL-6, more than 10000 nM; on GSK3β kinase it was 34 nM; in assay [3] (setting [7]), 0.615 µM; at DYRK1A kinase (setting [8]), 7 nM. The compound further gave an EC50 in assay [4] of 2380 nM. Besides, the inhibition at 10 µM in the assay with IL-6 was 28.8%.

On to `Cc1nnc(-c2ccc3cnc(NC(=O)N4CC5CCC(C4)N5C)cc3c2)s1` [Compound 110, 8-Methyl-N-(6-(5-methyl-1,3,4-thiadiazol-2-yl)isoquinolin-3-yl)-3,8-diazabicyclo[3.2.1]octane-3-carboxamide], for which the EC50 in assay [1] (setting [5]) was more than 10000 nM; in assay [2] (setting [6]), more than 10000 nM; with IL-6, more than 10000 nM; at GSK3β kinase, 314 nM; in assay [3] (SH-SY5Y, read-out: pSer396 Tau EC50 (μM)), 2.1 µM; on DYRK1A kinase (setting [8]), 17 nM. Also, in assay [4], the EC50 is 1970 nM. Moreover, the inhibition at 10 µM in assay [1] (setting [9]) stood at 1.5%; in assay [2] (setting [9]), 24.5%; with IL-6, 7%.

With `Cc1nc(-c2ccc3cnc(NC(=O)[C@H]4CC[C@H](N5CCN(C)CC5)CC4)cc3c2)co1` [Compound 12, trans-N-(6-(2-Methyloxazol-4-yl)isoquinolin-3-yl)-4-(4-methylpiperazin-1-yl)cyclohexane-1-carboxamide], the EC50 in assay [1] (setting [5]) came to 713 nM; in assay [2] (setting [6]), 943 nM; in the assay on IL-6, 1120 nM; at GSK3β kinase it was 189 nM; in assay [3] (setting [7]), 0.436 µM; at DYRK1A kinase (setting [8]), 16 nM. Also, the response in assay [4] was half-maximal at 102 nM (EC50).

With `[2H]c1c([2H])c(C([2H])([2H])[2H])c([2H])c([2H])c1C(=O)Nc1cc2cc(-c3cnc(C)n3C)ccc2cn1` [Compound 163, N-(6-(1,2-Dimethyl-1H-imidazol-5-yl)isoquinolin-3-yl)-4-(methyl-d3) benzamide-2,3,5,6-d4], the EC50 was 795 nM in assay [1] (setting [5]); 604 nM in assay [2] (setting [6]); 5720 nM in the assay on IL-6; 4270 nM at GSK3β kinase; more than 10 µM in assay [3] (setting [7]); 5 nM on DYRK1A kinase. This compound also returned an EC50 in assay [4] of 876 nM.

Turning to `[2H]c1c([2H])c(C(=O)Nc2cc3cc(-c4cncn4C)ccc3cn2)c([2H])c([2H])c1OC([2H])([2H])[2H]` [Compound 88, 4-(Methoxy-d3)-N-(6-(1-methyl-1H-imidazol-5-yl)isoquinolin-3-yl) benzamide-2,3,5,6-d4], the EC50 in assay [1] (setting [5]) came to 480 nM; in assay [2] (setting [6]), 179 nM; in the assay with IL-6, 1200 nM; at GSK3β kinase, 1010 nM; in assay [3] (setting [7]), 0.016 µM; on DYRK1A kinase, 2 nM. This compound also displayed an EC50 in assay [4] of 311 nM.

Regarding `Cn1cc(-c2cc3cc(NC(=O)[C@H]4CC[C@H](N(C)C)CC4)ncc3cc2F)cn1` [Compound 2, trans-4-(Dimethylamino)-N-(7-fluoro-6-(1-methyl-1H-pyrazol-4-yl)isoquinolin-3-yl)cyclohexane-1-carboxamide], the EC50 turned out to be 4450 nM in assay [1] (setting [5]); 799 nM in assay [2] (setting [6]); 1280 nM with IL-6; 246 nM at GSK3β kinase; 0.559 µM in assay [3] (setting [7]); 4 nM on DYRK1A kinase (setting [8]). Moreover, in assay [4], the midpoint of the response, the EC50, lay at 150 nM.

On to `[2H]c1c(NC(=O)CN2CCOCC2)ncc2ccc(-c3cnn(C)c3)cc12` [Compound 68, N-(6-(1-Methyl-1H-pyrazol-4-yl)isoquinolin-3-yl-4-d)-2-morpholinoacetamide], for which the EC50 was more than 10000 nM in assay [1] (setting [5]); 6950 nM in assay [2] (setting [6]); 4060 nM in the assay on IL-6; 66 nM on GSK3β kinase; 0.948 µM in assay [3] (setting [7]); 7 nM on DYRK1A kinase. In assay [4], this compound yielded an EC50 of 1520 nM. Further, in assay [1] (setting [10]), the inhibition at 10 µM stood at 47.2%.

Consider `Cc1nnc(-c2cc(F)c3cnc(NC(=O)[C@H]4CC[C@H](N5CCOCC5)CC4)cc3c2)s1` [Compound 57, trans-N-(8-Fluoro-6-(5-methyl-1,3,4-thiadiazol-2-yl)isoquinolin-3-yl)-4-morpholinocyclohexane-1-carboxamide], for which the EC50 was 4110 nM in assay [1] (setting [5]); more than 10000 nM in assay [2] (setting [6]); more than 10000 nM in the assay with IL-6; 16 nM at GSK3β kinase; 0.136 µM in assay [3] (setting [7]); 9 nM on DYRK1A kinase (setting [8]). In addition, the response in assay [4] was half-maximal at 1170 nM (EC50). The inhibition at 10 µM amounted to 40.1% in assay [2] (setting [10]) and 6.1% in the assay with IL-6.

For the compound `[2H]C1([2H])OC([2H])([2H])C([2H])([2H])N(C(=O)Nc2cc3cc(-c4cnc(C)n4C)ccc3cn2)C1([2H])[2H]` [Compound 143, N-(6-(1,2-Dimethyl-1H-imidazol-5-yl)isoquinolin-3-yl)morpholine-d8-4-carboxamide], the EC50 in assay [1] (setting [5]) was 3360 nM; in assay [2] (setting [6]) it was 2940 nM; with IL-6 it was more than 10000 nM; at GSK3β kinase, 1780 nM; in assay [3] (setting [7]), 7.2 µM; at DYRK1A kinase it was 11 nM. The compound further had an EC50 in assay [4] of more than 10000 nM. The inhibition at 10 µM was found to be 5.7% with IL-6 and 40.4% in assay [4].

Values taken from US10604514B2, “6-(5-membered heteroaryl)isoquinolin-3-yl carboxamides and preparation and use thereof” (Samumed, LLC, priority 2017, dated 2020).
